The subject of test [1] is restraint stress (RS) rat model. Kind of test: Restraint stress (RS) rat model: body weight, food intake, fecal pellet output. It counts as in vivo, Sprague-Dawley (SD) rats.
Excerpt: Male Sprague-Dawley (SD) rats, weighting 200-250 g were purchased from Charles River Laboratories Beijing and housed in an SPF grade animal facility of OSRI in individual ventilated cages (IVC), with 3 rats per cage. All animals were maintained with a 12-hour light/dark cycle and had free access to rodent chow and water. All animal study procedures were in accordance with Animal Welfare Regulations and approved by the Institutional Animal Care and Use Committee (IACUC) of OSRI.
Rats (from group #2 and group #3) were submitted to a 2-hour restraint in a plastic cylinder daily in the PM for 10 consecutive days (D1 to D10). Rats from the control group (group #1) remained in their individual cages, undisturbed throughout the entire experiment. After 3 days of repeated RS modeling, from D4 to D10, the rats from group #2 and group #3 were treated in the morning (4h ahead of PM restraint) with vehicle (5% AG) and the test substance (2.5 mg/kg) respectively for 7 consecutive days. Fecal pellet output was used to estimate distal colonic motility as a validated index (Hong S et al., Gut 2009, 58:202-210). During the 2-hour restraint period, the rat's fecal pellet output was collected and counted, same for the rats in control group during the same 2-hour mock observation period.
A further test concerns histamine. Kind of test: Urine histamine level by ELISA in RS model. The test is classed as in vivo, Sprague Dawley Rats. Conditions: rat, 2.5 mg/kg PO, day 7 (4 days post treatment), p<0.01 vs RS group, FIG. 6.
Test [2] relates to restraint stress (RS) rat model. The test is described as follows: Visceromotor response to colorectal distention in RS model. The test is classed as in vivo, Sprague Dawley Rats. Conditions: 2.5 mg/kg PO, day 7 (4 days post dose), p<0.05 vs RS group, FIG. 5.
Description: (§1) Sprague Dawley Rats were submitted to a 2h restraint in a plastic cylinder daily for 7 consecutive days as described above. In control group, the rats were remained in an individual cage, undisturbed, throughout the experiment.
Colonic distension—A polyethylene balloon (3 cm long, 1.5 cm max. diameter) was secured to tubing attached to a blood pressure meter to be used to perform colonic distension. The balloon was lubricated and placed into the rat's distal colon so that the tip of the balloon was 2 cm proximal to the anus. Using the blood pressure meter distension device, rats were restrained in a plastic containment device and allowed to acclimate for 10 min before testing. The rats received phasic distension (0-100 mmHg in 5-mmHg ascending increments) of the colon until the first contraction of the testicles, tail or abdominal musculature occurred. This visualization was performed by three independent observers. […] Compliance of the colon was not measured given the rapid distension protocol used in this study. The colonic distensions were repeated three times with 5-min interstimulus intervals and the mean pressures at the nociceptive threshold were recorded for each rat.
Statistical significance was either calculated by two-tailed T-test (visceral sensitivity on day 3) or one-way ANOVA using Dunnett's multiple comparison. P<0.05 was considered statistically significant.

Description for histamine: as §1
Urine samples were collected every day after the restraint. A plastic dish was placed underneath restraint tube and the urine sample was collected. It is immediately transferred into a tube and stored at-800C until further analysis. Histamine was measured with the Histamine ELISA Kit ((CAT #: D751012, BBI) according to the manufacturer's instructions as follows.
Calculate the required number of slats in advance, and take out the kit 30 minutes before the test and restore it to room temperature. • 2. Add 50 μL of standard working liquid and test sample to each reaction hole. The standard needs to be re-drilled. 50 μL of biotin-labeled histamine antibody working solution was added to each reaction well immediately, and the plate was sealed and incubated at 37° C. for 45 min. • 3. […] OD value was measured with 450 nm wavelength of enzyme label instrument. • 9. Draw a standard curve with the concentration of standard substance as the horizontal coordinate and absorbance as the vertical coordinate. • 10. Statistical significance was either calculated by two-tailed T-test (visceral sensitivity on day 3) or one-way ANOVA using Dunnett's multiple comparison. […]

As to `Cc1c(-c2cnc(N)c(C#N)c2)c(F)cc2c(=O)c(C(=O)O)cn(C3CC3)c12` [OPS-2071, 1-cyclopropyl-6-fluoro-1,4-dihydro-8-methyl-7-(2-amino-3-cyano-5-pyridyl)-4-oxo-3-quinoline-carboxylic acid], in test [1] (2.5 mg/kg PO QD for 7 days from D4, group #3 vs. RS vehicle group #2, FIGS. 1 and 2), the “body weight / body weight change (BWC) % in RS-IBS model” value is “body weight drop caused by restraint stress is improved”. Besides, the “fecal pellet output during 2-hour restraint” value in test [1] (2.5 mg/kg PO from day 4, group #3 vs. group #2, FIG. 3) is “a decrease of the fecal pellet output was observed”. For the same molecule, the “food intake (appetite) in RS model” value in test [1] (2.5 mg/kg PO, monitored from 3 days post treatment initiation, group #3 vs. group #2) is reported as “protective effect on decreased appetite”. Moreover, the urine histamine level entry with histamine was “decreased”. In addition, in test [2], the “visceral sensitivity (visceromotor response to colorectal distention, mmHg)” value is recorded as “a decrease in visceral sensitivity”.
